Results as given in patent US12312359B2 (Vitae Pharmaceuticals, LLC, priority 2016, dated 2025).

Columns and labels:
[1] = tested on: human acute monocytic leukemia cell line MV-4-11; test: Assay 2: cell proliferation assay (ATP quantitation, CellTiter-Glo), MV-4-11; type: cell-based; details: MV-4-11 cells
Procedure, shortened: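 Read-out is CellTiter-Glo luminescence quantifying ATP. Compound exposure lasted 72 h at 37° C., 5% CO2, with 1.67×10^4 MV-4-11 cells per well in 10% FBS medium, alongside HL-60 toxicity-control cells.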

[2] = biological target: T1, biotinylated wild-type menin and MLL-AF9 fusion protein (menin/MLL binding) (Homo sapiens, UniProt O00255); test: Assay 1: menin/MLL binding AlphaLISA assay, wild-type menin; details: Table 30; column head does not say wild-type or mutated menin
T1 construct: made in house; host or cells: menin: E. coli; MLL-AF9-FLAG: HEK293 cells, used as cleared lysate
T1 sequence (O00255 1-610): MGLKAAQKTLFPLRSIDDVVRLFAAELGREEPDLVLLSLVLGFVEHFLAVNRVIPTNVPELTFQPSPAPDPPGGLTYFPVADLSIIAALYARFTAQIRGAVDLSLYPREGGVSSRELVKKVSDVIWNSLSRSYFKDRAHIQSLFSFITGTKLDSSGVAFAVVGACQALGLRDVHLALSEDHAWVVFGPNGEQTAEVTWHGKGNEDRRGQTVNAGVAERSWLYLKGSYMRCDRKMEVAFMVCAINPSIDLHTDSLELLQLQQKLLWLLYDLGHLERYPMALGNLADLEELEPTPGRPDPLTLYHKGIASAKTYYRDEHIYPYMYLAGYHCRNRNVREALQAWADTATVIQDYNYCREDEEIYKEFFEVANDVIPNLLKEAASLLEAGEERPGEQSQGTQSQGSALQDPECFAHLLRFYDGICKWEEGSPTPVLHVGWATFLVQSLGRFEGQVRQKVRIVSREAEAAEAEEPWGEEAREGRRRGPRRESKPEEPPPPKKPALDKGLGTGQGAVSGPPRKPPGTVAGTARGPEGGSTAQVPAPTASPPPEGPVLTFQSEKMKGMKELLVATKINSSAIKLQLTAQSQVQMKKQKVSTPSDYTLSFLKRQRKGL
Procedure, shortened: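 Compound was preincubated 30 min at room temperature with biotinylated menin (5 nM) and MLL-AF9-FLAG lysate from HEK293 cells, pH 7.4 buffer with 5% DMSO and DTT. Bead-based Alpha signal after 60 min with streptavidin donor and anti-FLAG acceptor beads; four-parameter logistic fit gave IC50.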

| Compound | EC50 ([1]; Homo sapiens, MV4-11, 72 h) [µM] | IC50 [2] [µM] | EC50 ([1]; 72 h) [µM] |
| --- | --- | --- | --- |
| CCN(C(=O)c1cc(F)ccc1Oc1cncnc1N1CC2(CCN(C[C@H]3CC[C@H](NS(C)(=O)=O)CC3)CC2)C1)C(C)C [Example 238, N-ethyl-5-fluoro-N-isopropyl-2-((4-(7-(((1r,4r)-4-(methylsulfonamido)cyclohexyl)methyl)-2,7-diazaspiro[3.5]nonan-2-yl)pyrimidin-5-yl)oxy)benzamide] | < 0.1 | < 0.1 |  |
| CC(C)N(C)C(=O)c1cc(F)ccc1Oc1cncnc1N1CCC2(CCN(Cc3ccc(N4CCOC4=O)cc3)C2)C1 (stereo not drawn) [Example 62, 5-fluoro-N-isopropyl-N-methyl-2-((4-(7-(4-(2-oxooxazolidin-3-yl)benzyl)-2,7-diazaspiro[4.4]nonan-2-yl)pyrimidin-5-yl)oxy)benzamide] |  | < 0.1 | 0.1 to 1 |
| Fc1ccc(Oc2cncnc2N2CC3(CN(CC4CCOCC4)C3)C2)c(OC2CCCC2)c1 [Example 168, 2-(5-(2-(cyclopentyloxy)-4-fluorophenoxy)pyrimidin-4-yl)-6-((tetrahydro-2H-pyran-4-yl)methyl)-2,6-diazaspiro[3.3]heptane] | ≥ 1 | < 0.1 |  |
| Cn1c(=O)[nH]c2ccc(CN3CCC4(CCC(c5ncncc5Oc5ccc(F)cc5Cl)C4)C3)cc21 (stereo not drawn) [Example 27, 6-((7-(5-(2-chloro-4-fluorophenoxy)pyrimidin-4-yl)-2-azaspiro[4.4]nonan-2-yl)methyl)-1-methyl-1H-benzo[d]imidazol-2(3H)-one] | ≥ 1 | < 0.1 |  |
| CC(=O)Nc1ccc(CN2C(=O)C3(CCN(c4ncncc4Oc4ccc(F)cc4C(=O)N(C)C(C)C)C3)N=C2N)cc1 (stereo not drawn) [Example 251, 2-((4-(3-(4-acetamidobenzyl)-2-amino-4-oxo-1,3,7-triazaspiro[4.4]non-1-en-7-yl)pyrimidin-5-yl)oxy)-5-fluoro-N-isopropyl-N-methylbenzamide] | ≥ 1 | < 0.1 |  |
| CC(C)n1nccc1-c1cc(F)ccc1Oc1cncnc1N1CC2(CN(CC3CCCC(F)(F)C3)C2)C1 (stereo not drawn) [Example 231, 2-((3,3-difluorocyclohexyl)methyl)-6-(5-(4-fluoro-2-(1-isopropyl-1H-pyrazol-5-yl)phenoxy)pyrimidin-4-yl)-2,6-diazaspiro[3.3] heptane] | 0.1 to 1 | < 0.1 |  |
| CCN(C(=O)C(C)C)c1cc(F)ccc1Oc1cncnc1N1CC2(CN(CC3CCCCC3)C2)C1 [Example 106, N-(2-((4-(6-(cyclohexylmethyl)-2,6-diazaspiro[3.3]heptan-2-yl)pyrimidin-5-yl)oxy)-5-fluoro-phenyl)-N-ethylisobutyramide] | < 0.1 | < 0.1 |  |
| CN(C(=O)c1cc(F)ccc1Oc1cncnc1N1CCC2(CCN(Cc3ccc4[nH]c(=O)[nH]c4c3)C2)C1)c1ccccc1 (stereo not drawn) [Example 166, 5-fluoro-N-methyl-2-((4-(7-((2-oxo-2,3-dihydro-1H-benzo[d]imidazol-5-yl)methyl)-2,7-diazaspiro[4.4]nonan-2-yl)pyrimidin-5-yl)oxy)-N-phenylbenzamide] | 0.1 to 1 | < 0.1 |  |
| CC(C)N(C(=O)c1cc(F)ccc1Oc1cncnc1N1CCC2(CC(O)C(Cc3ccc4[nH]c(=O)[nH]c4c3)C2)C1)C(C)C (single isomer, unassigned) [Example 23C, 5-fluoro-2-((4-(7-hydroxy-8-((2-oxo-2,3-dihydro-1H-benzo[d]imidazol-5-yl)methyl)-2-azaspiro[4.4]nonan-2-yl)pyrimidin-5-yl)oxy)-N,N-diisopropylbenzamide] |  | < 0.1 | ≥ 1 |
| CC(C)N(C(=O)c1cc(F)ccc1Oc1cncnc1N1CC2(CCN(CC(C)(C)O)CC2)C1)C(C)C [Example 89, 5-fluoro-2-((4-(7-(2-hydroxy-2-methylpropyl)-2,7-diazaspiro[3.5]nonan-2-yl)pyrimidin-5-yl)oxy)-N,N-diisopropylbenzamide] | 0.1 to 1 | < 0.1 |  |
| COC(=O)Nc1cccc(CN2CCC3(CCN(c4ncncc4Oc4ccc(F)cc4-c4ccc(C#N)cc4C4CC4)C3)C2)c1 (stereo not drawn) [Example 170, methyl (3-((7-(5-((4′-cyano-2′-cyclopropyl-5-fluoro-[1,1′-biphenyl]-2-yl)oxy)pyrimidin-4-yl)-2,7-diazaspiro[4.4]nonan-2-yl)methyl)phenyl) carbamate] | 0.1 to 1 | < 0.1 |  |
| Cc1cc(C#N)cc(C)c1-c1cc(F)ccc1Oc1cncnc1N1CCC2(CCN(Cc3ccc4[nH]c(=O)[nH]c4c3)C2)C1 (stereo not drawn) [Example 51, 5′-fluoro-2,6-dimethyl-2′-((4-(7-((2-oxo-2,3-dihydro-1H-benzo[d]imidazol-5-yl)methyl)-2,7-diazaspiro[4.4]nonan-2-yl)pyrimidin-5-yl)oxy)-[1,1′-biphenyl]-4-carbonitrile] | < 0.1 | < 0.1 |  |
| CC(C)c1ccccc1-c1cc(F)c(F)cc1Oc1cncnc1N1CCC2(CCN(Cc3ccc4[nH]c(=O)[nH]c4c3)C2)C1 (stereo not drawn) [Example 47, 5-((7-(5-((4,5-difluoro-2′-isopropyl-[1,1′-biphenyl]-2-yl)oxy)pyrimidin-4-yl)-2,7-diazaspiro[4.4]nonan-2-yl)methyl)-1H-benzo[d]imidazol-2(3H)-one] | 0.1 to 1 | < 0.1 |  |
| CC(C)N(C(=O)c1cc(F)ccc1Nc1cncnc1N1CCC2(CC1)CN(C[C@H]1CC[C@H](NC(=O)OC(C)(C)C)CC1)C2)C(C)C [Example 241, tert-butyl ((1r,4r)-4-((7-(5-((2-(diisopropylcarbamoyl)-4-fluorophenyl)amino)pyrimidin-4-yl)-2,7-diazaspiro [3.5]nonan-2-yl)methyl)cyclohexyl) carbamate] | 0.1 to 1 | < 0.1 |  |
| CC(C)n1nccc1-c1cc(F)ccc1Oc1cncnc1N1CCC2(CCN(Cc3ccc4[nH]c(=O)[nH]c4c3)C2)C1 (single isomer, unassigned) [Example 197B, 5-((7-(5-(4-fluoro-2-(1-isopropyl-1H-pyrazol-5-yl)phenoxy)pyrimidin-4-yl)-2,7-diazaspiro[4.4]nonan-2-yl)methyl)-1,3-dihydro-2H-benzo[d]imidazol-2-one] |  | < 0.1 | < 0.1 |
| CC(C)N(C)C(=O)c1cc(F)ccc1Oc1cncnc1N1CCC2(CCN(Cc3ccc4[nH]c(=O)[nH]c4c3)C2)C1 (single isomer, unassigned) [Example 183A, 5-fluoro-N-isopropyl-N-methyl-2-((4-(7-((2-oxo-2,3-dihydro-1H-benzo[d]imidazol-5-yl)methyl)-2,7-diazaspiro[4.4]nonan-2-yl)pyrimidin-5-yl)oxy)benzamide] | < 0.1 | < 0.1 |  |
| CC(C)c1ncncc1-c1cc(F)ccc1Oc1cncnc1N1CC2(CN(C(=O)Cc3ccc4c(c3)NC(=O)C4(C)C)C2)C1 [Example 133, 6-(2-(6-(5-(4-fluoro-2-(4-isopropylpyrimidin-5-yl)phenoxy)pyrimidin-4-yl)-2,6-diazaspiro[3.3]heptan-2-yl)-2-oxoethyl)-3,3-dimethylindolin-2-one] | 0.1 to 1 | < 0.1 |  |
| CCN(C(=O)C(C)C)c1cc(F)ccc1Oc1cncnc1N1CC2(CN(C(=O)C3Cc4ccc(Br)cc4C3)C2)C1 (stereo not drawn) [Example 120, N-(2-((4-(6-(5-bromo-2,3-dihydro-1H-indene-2-carbonyl)-2,6-diazaspiro [3.3]heptan-2-yl)pyrimidin-5-yl)oxy)-5-fluorophenyl)-N-ethylisobutyramide] | < 0.1 | < 0.1 |  |
